PubChem BioAssay AID1996
Values after ≈ are worked out from the molar mass of the structure shown.

conditions: buffer; pH 7.4; 200.0 µM

Compound	solubility kinetic [µg/mL]
CC(=O)c1ccccc1NS(=O)(=O)c1ccc2c(c1)CC(=O)N2	29.9 (≈ 90.5 µM)
Cc1ccccc1C(=O)NCCCNC(=O)c1cnccn1	40.1 (≈ 134 µM)
Cc1nc(Nc2ccccc2)sc1C(=O)c1ccccc1	2.1 (≈ 7.13 µM)
CC(C)(C)C(=O)/C(C#N)=C/c1cccs1	10.9 (≈ 49.7 µM)
CCCCOc1ccc(C(=O)NNC(=O)c2cnccn2)cc1OC	> 51.7
O=C(O)c1ccc(NC2CC(=O)N(Cc3ccccc3)C2=O)cc1 (stereo not given)	> 48.7
CCc1ccccc1Cn1c(=O)oc2cccnc21	> 38.1
Clc1ccc(Cc2ccccn2)cc1	6.3 (≈ 30.9 µM)
COc1ccc(CCC(=O)OCC(=O)NCc2ccc(OC)c(OC)c2)cc1OC	> 62.6
CNC(=O)NC(=O)Cn1cnc2sc(-c3ccccc3)cc2c1=O	0.4 (≈ 1.17 µM)
CC(CCc1ccccc1)NC(=O)CCc1cn(C)c2ccccc12 (stereo not given)	6.2 (≈ 18.5 µM)
S=C(Nc1ccc(Oc2ccccc2)cc1)Nc1cccnc1	30 (≈ 93.3 µM)
CC(C)C(=O)N1CCN(c2ccccc2NC(=O)c2ccco2)CC1	48 (≈ 141 µM)
COc1ccccc1C(=O)NC(=O)CSc1nnc(C)s1	> 48.5
Cc1ccc(NC(=O)C2CCC(C(C)(C)C)CC2)cc1S(=O)(=O)N1CCOCC1 (stereo not given)	3.5 (≈ 8.28 µM)
CCN1CCN(c2nc3ccccn3c(=O)c2C=O)CC1	> 42.9
O=C(Nc1ccccc1N1CCCC1)c1ccccc1F	19.8 (≈ 69.6 µM)
COc1cc(C(=O)NC2CCCc3ccccc32)cc(OC)c1C (stereo not given)	< 0.7
CCc1ccc(OC(=O)CN2C(=O)c3ccccc3C2=O)cc1	39.3 (≈ 127 µM)
O/N=C/c1ccn(-c2ccc(Br)cc2)c1	2.6 (≈ 9.81 µM)

Compound	solubility kinetic [µg/mL]
CC(C)CCNC(=O)c1ccc(-n2cnc3cccnc32)cc1	> 46.3
Cc1ccc(C(=O)NC(=S)N2CCCCCC2)cc1	> 41.5
CCOC(=O)N1CCN(C(=O)/C=C/c2ccc(C(C)(C)C)cc2)CC1	22.9 (≈ 66.5 µM)
CCOc1nc2ccccc2cc1/C=C/C(=O)O	13.1 (≈ 53.9 µM)
CC(C)(C)NC(=O)COC(=O)c1c2c(nc3ccccc13)CCC2	35.8 (≈ 110 µM)
Cc1cc(C)cc(OCC(=O)NC(C)c2ccccc2)c1 (stereo not given)	28.8 (≈ 102 µM)
O=C(COC(=O)C1CCCC1)NCc1ccc(Cl)cc1	> 44.4
CC1CCN(C(=O)COC(=O)c2ccc(Cl)nc2)CC1	> 44.5
CO/N=C/C(c1ccc(Cl)nc1)S(=O)(=O)c1ccccc1 (stereo not given)	> 48.7
Cc1cc(Nc2ccc(Br)cc2)nc2ccccc12	< 0.3
COc1ccc(S(=O)(=O)Nc2ccccc2C(N)=O)cc1OC	47.5 (≈ 141 µM)
COc1ccc(C(=O)N[C@H](C(=O)NCc2ccc(C)cc2)C(C)C)cc1	1.1 (≈ 3.1 µM)
CSc1ncccc1C(=O)OCC(=O)NC(C)(C)C	> 42.4
C=CCn1c(C)cc(-c2csc(NC)n2)c1C	8.5 (≈ 34.4 µM)
CCCCn1c(SCC(=O)N2CCOCC2)nc2ccccc2c1=O	> 54.2
S=C(NCc1ccco1)Nc1ccc(Oc2ccc(Cl)cc2)cc1	< 0.4
CN1CCN(Cc2c(F)cccc2Cl)CC1	24.2 (≈ 99.7 µM)
Cc1cc(C)cc(NC(=O)Nc2ccccc2N2CCCCC2)c1	25.5 (≈ 78.8 µM)
COc1ccc2[nH]cc(CCN3C(=O)c4ccc(C(=O)O)cc4C3=O)c2c1	> 54.7
CCCn1c2ccccc2c2cnn(CC(=O)NCCN(C)C)c(=O)c21	> 53.3

Compound	solubility kinetic [µg/mL]
CN(Cc1ccccc1)C(=O)COC(=O)/C=C/c1ccco1	> 44.9
CC1CCN(CC(=O)N2CCN(c3ccccc3)CC2)CC1	40.8 (≈ 135 µM)
Cc1ccc(C)c(NC(=O)CCN2CCCC(C)C2)c1 (stereo not given)	38.5 (≈ 140 µM)
COCC(=O)Nc1ccc(S(=O)(=O)N2CCCC2)cc1	> 44.8
CC1CC(C)CN(C(=O)c2cc3ccccc3o2)C1 (stereo not given)	28.7 (≈ 112 µM)
O=C(NC(=S)Nc1ccccc1Br)C1CCCC1	2.7 (≈ 8.25 µM)
O=C(COc1cccnc1[N+](=O)[O-])NCc1ccc(F)cc1	> 45.8
COC(=O)c1cc2ccccc2n1S(=O)(=O)c1ccccc1	< 0.7
CCNc1nc(=S)nc(NCc2ccccc2)[nH]1	4.6 (≈ 17.6 µM)
COc1cc2c(cc1OC)CN(C(=O)c1cc(Cl)nc(Cl)c1)CC2	27 (≈ 73.5 µM)
Cc1ccc2c(CN(C)Cc3ccccc3)cc(=O)oc2c1C	1.7 (≈ 5.53 µM)
COc1ccc(-c2csc(NC(=O)Nc3ccccc3)n2)cc1	1.8 (≈ 5.53 µM)
CCOC(=O)c1ccc(NC(=O)c2ccc[n+]([O-])c2)cc1	> 42.9
CC1CCCN(c2nc3nonc3nc2Nc2ccccc2F)C1 (stereo not given)	0.8 (≈ 2.44 µM)
COc1cccc(NC(=O)COC(=O)C2CC2)c1	> 37.4
Cc1cc(C(C)(C)C)oc1C(=O)OCC(=O)NC1CCCCC1	1.1 (≈ 3.42 µM)
COc1ccccc1NS(=O)(=O)c1ccc(C(=O)NCC(c2ccc(F)cc2)N2CCOCC2)cc1 (stereo not given)	> 77
Cc1ccc(C(=O)O/N=C(\N)Cc2cccs2)cc1[N+](=O)[O-]	39.9 (≈ 125 µM)
CN1CCC2(CC1)NC(=O)c1ccccc1N2.Cl	> 40.2
C[N+](C)(C)CCOP(=O)([O-])OP(=O)([O-])OC[C@H]1O[C@@H](n2ccc(N)nc2=O)[C@H](O)[C@@H]1O.[Na+]	3.7
